In US20250161238A1, “NMDAR Antagonists Prevent Ageing and Aging-Associated Conditions and Diseases Through Increasing 20S Proteasome Activity” (priority 2022, published 2025):
Entries after “also recorded” stand apart in the source; their conditions may differ.

Legend:
mice with GD symptoms = conditions: inverted screen / hanging wire test; cited from earlier work
NMDA receptor = conditions: cited from earlier work
lipid accumulation = assay: Nile red staining of lipid in mouse tissues; type: in vivo; conditions: mice at 22 months
From the text: In the next study, the effects of NMDAR blocker on lipid accumulation in liver, brain, muscle, lung, skin, pancreas, and kidney of mice with the presence of Memantine and control mice groups at 22 months were stained with Nile red and investigated.
Whole frozen tissues were sectioned with a microtome and fixed in 4% paraformaldehyde, Tissues were washed in PBS and the individual staining methods used in accordance with the manufacturer's recommendations. Total pixels from fluorescence in the images were quantified using Adobe Photoshop software CS2 (Adobe Systems), and normalized to a nuclear stain.

mice = assay: Weight test (forelimb grip) in aged mice; type: in vivo; conditions: mice at 22 months
From the text: Another grip test that measures muscle strength more finely is forelimb grip strength test. Many biomarkers related to aging have been identified in human. Importantly, the grip tests performed on humans has been defined as a highly predicitive indicator that can show disabilities, diseases and deaths that may occur due to aging (Iconaru et al., 2018; Sousa-Santos and Amaral, 2017) In this test a mouse is held by the middle base of the tail and lower it to allow it to grasp the weight which is a ball of tangled fine gauge stainless steel wire. This test is carried out by increasing the weight, investigating the weight that the mouse can carry or keeping the weight constant and how long the mouse can carry the weight.
The experimental protocols were approved by the Ethics Committee of Ankara University, Faculty of Medicine, Medical Sciences Experimental Research and Application Center (Date: Dec. 11, 2019 and Decision number: 2019-22-189). Adult (12-mounts-old) C57BL/6 mice (5 for each group) were used. The mice were housed at the Experimental Animal Research Laboratory of Ankara University Faculty of Medicine. […] Tests related to locomotor activities of the mice were recorded and available.
Weight test use to measure muscle strength (Deacon, 2013). […] The experiment was recorded by camera for a maximum of 5 minutes. Total griping time was evaluated.

C. elegans = C. elegans life span in liquid medium; type: in vivo; conditions: for C. elegans survived compared to control: 20th day
From the text: C. elegans is a free-living multicellular organism. Clear age-dependent human like physiological changes at the tissue, cellular, and molecular levels make C. elegans a valuable model for research in the field of aging and life span studies (Ambros, 2006). Accordingly, it was investigated how NMDAR blockers affact the life span of C. elegans. The use of drugs in the C. elegans related studies has been applied in different ways. The drugs were either applied to the LB medium with bacteria OP50, before spreading onto Nematode Growth Medium (NGM) plates (LB medium method), or to the NGM with live (NGM live method) or dead bacteria (NGM dead method), or spotting the drug solution to the surface of plates directly (spot dead method), or growing the worms in liquid medium (liquid growing method) (Ambros, 2006). Liquid growing method achieved the best absorption efficiency in worms. […] Therefore in this invention all the experiements related with the C. elegans were completed in liquid medium. In order to understand the effectiveness of the drug according to the onset time, the memantin was added to the medium on the 1st, 7th and 14th days in a 24-day period and the number of viable worms were determined on the 20nd day.
C. elegans strains used in this study were gift from Dr. Deniz Aksoy, Faculty of Sciency-Trakya University-Turkey. Preparation of liquid culture of C. elegans was prepared according to the Stiernagle, T. Maintenance of C. elegans (Feb. 11, 2006), WormBook, http://www.wormbook.org. Animals were grown on nematode growth medium (NGM) (50 mM NaCl, 2% agar, […], 5 mg/L cholesterol, 1.0 mM CaCl2), 1.0 mM MgSO4, 25 mM potassium phosphate, pH 6.0) seeded with Escherichia coli OP50 at 20° C. using standard methods.
For this purpose, the method described by Sulston, J. & Hodgkin, J. was followed. (See, Methods. in: Wood, W. B. (ed.) The Nematode Caenorhabditis elegans. (1988) Cold Spring Harbor Laboratory, Cold Spring Harbor: 587-606.; Solis, G. M., Petrascheck, M. Measuring Caenorhabditis elegans Life Span in 96 Well Microtiter Plates. 2011, J. Vis. Exp. (49)) Two-3 days old worms with eggs growing in NGM were transferred to 50 ml flask using S-medium. After centrifugation, worms were treated with 20% Alkaline Hypochlorite Solution and the eggs were transferred to the S-medium after washing with S-medium.
To sterilize the animals 300 μL of a 6 mM Fluorodeoxyuridine (FUDR) stock solution was added to 10 ml medium. During the monitoring of their life span, the worms were kept by shaking at a constant speed of 200 rpm. Locomotor activities of the worms were recorded and available.

## CC12CC3CC(C)(C1)CC(N)(C3)C2 [memantine, 3,5-dimethyladamantan-1-amine]
Mice with GD symptoms
  muscle strength / motor coordination of GD mice: much better; also recorded: improved significantly; also recorded: increase the muscle strength
NMDA receptor
  block of NR2C and NR2D Subunits: preferentially blocks
  effects at NR2A: weak effects
  potency at NR1A/2B: intermediate potency
NMDA receptor; does not affect other ligand-gated or Voltage gated channels
  levels at which the mechanism of action is specific for antagonism of the NMDA receptor: 1 to 10 µM
Lipid accumulation
  amount of lipid in liver, brain, muscle, lung, and skin: less than that of the control group
  amount of lipid in pancreas and kidney: No clear difference
mice
  forelimb grip: time holding a fixed weight: four times longer
C. elegans; memantin started on day 7 or day 1
  C. elegans survived compared to control: ~3 times
C. elegans; memantin started on the 14th day
  C. elegans survived compared to control: 67%
C. elegans; day 21
  worms survived compared to no-treatment: 4 times
C. elegans; log-rank (Kaplan-Meier)
  life span of C. elegans: increase
